In this test the test system is rat lens epithelial cells. Briefly: Inhibitory activity on lens epithelial cell proliferation. The format is cell-based. To be noted: rat lens epithelial cells cultured 4 days in DMEM with 10% FBS and various concentrations of Tranilast; viable cells counted by hemocytometer; FIG. 1. How it is done:
Inhibitory Activity on Lens Epithelial Cell Proliferation
(1) Culture of Rat Lens Epithelial Cells
Rat crystalline lens was harvested and cut into narrow strips. The strips were adhered to a culture plate and subcultured in Dulbecco's modified Eagle's Medium (DMEM) containing 10% fetal calf serum (FBS) at 37° C. in an atmosphere of 5% CO2 in air for 4 days. On day 4 (at the point that lens epithelial cells had migrated and profilated from crystalline lens tissues), the medium was aspirated and cells were gently washed with phosphate-buffered saline (PBS(−)). Then, the PBS(−) was aspirated, an aliquot of 0.25% trypsin solution containing 0.02% EDTA was added to the culture plate, and the morphology of the cells was observed under phase-contrast microscopy. When cells were going to be round, an equal value of DMEM containing 10% FBS was added to the trypsin solution to stop the action of trypsin. […]
Cell suspension (2×10^4 cells/0.1 ml) and DMEM medium (1.9 ml) containing various concentration of Tranilast and 10% FBS were added to a culture plate (60 mm), and cultured at 37° C. in an atmosphere of 5% CO2 in air. […] After harvesting cells from the plate by pipetting using a pasture pipette, the number of viable cells was counted using a hemocytometer. […]
Mean and standard variation values of each group were calculated. […]

On to `COc1ccc(C=CC(=O)Nc2ccccc2C(=O)O)cc1OC` [Tranilast, N-(3,4-dimethoxycinnamoyl)anthranilic acid], for which the “proliferation of lens epithelial cells (number of viable cells)” value is listed as “significantly suppressed the proliferation of lens epithelial cells in a concentration-dependent manner”.
